Data as given in PMC12587545, “Noncytotoxic polymyxin derivatives enhance antibiotic action against multidrug-resistant Gram-negative bacteria” (Antimicrobial Agents and Chemotherapy, 2025).
Several values for one entry are separate records, joined by “and”; a condition that tells them apart may be missing. Equal entries are not always repeated.

Experiments:
[1] = system: P. aeruginosa; test: Checkerboard assay (antibiotic potentiation); assay type: cell-based, Pseudomonas aeruginosa; conditions: for MICantibiotic: antibiotic alone
Procedure: (§1) The interaction between the compounds and the antibiotics was evaluated using the fractional inhibitory concentration (FIC) index. FIC indices of ≤0.5 is synergistic, 0.5 < × ≤ 4 is additive, whereas >4 is antagonistic ([34]).
(§2) Synergy was measured by the FIC index, which is the summation of the individual FICs of the antibiotic and the compound. The FIC is calculated by dividing the MIC of one agent in the presence of another by the MIC of the agent alone. […] The FBS studies were conducted by following a previously published protocol ([29], [50]). The FBS was inactivated by heating at 56°C for 30 min with constant swirling.

[2] = system: A. baumannii; test: Checkerboard assay (antibiotic potentiation); assay type: cell-based, Acinetobacter baumannii; conditions: for MICantibiotic: antibiotic alone
Procedure: (§3) The interaction between the compounds and the antibiotics was evaluated using the fractional inhibitory concentration (FIC) index. FIC indices of ≤0.5 is synergistic, 0.5 < × ≤ 4 is additive, whereas >4 is antagonistic ([34]). […] .
(§4) The bacterial isolates were acquired from ATCC or the Canadian Ward Surveillance (CANWARD) study ([56]). CANWARD isolates were collected from infected patients admitted to participating medical centers across Canada.
(§5) The antibiotic and compounds were serially diluted 2-fold in CAMHB along the x- and y-axis, respectively, on a 96-well plate that was subsequently incubated with equal volumes of bacterial inoculum overnight at 37°C. Wells containing only media were used as negative controls, and wells containing only bacteria were used as positive controls. Synergy was measured by the FIC index, which is the summation of the individual FICs of the antibiotic and the compound. The FIC is calculated by dividing the MIC of one agent in the presence of another by the MIC of the agent alone. Turbidity was confirmed with a Molecular Devices (United States) EMax Plus microplate reader at a wavelength of 590 nm. The FBS studies were conducted by following a previously published protocol ([29], [50]). The FBS was inactivated by heating at 56°C for 30 min with constant swirling.

[3] = system: K. pneumoniae; test: Checkerboard assay (antibiotic potentiation); assay type: cell-based, Klebsiella pneumoniae; conditions: for Interpretation: antibiotic + compound 1; for MICantibiotic: antibiotic alone; for Potentiation: of antibiotic by 8 µg/mL (5 µM) compound 1
Procedure: as §1, §2

[4] = system: MDR Gram-negative bacteria clinical isolates; test: Checkerboard assay, summary over strains; assay type: cell-based; conditions: of all 14 clinical isolates; number (%)
Procedure: as §1, §5

[5] = system: E. cloacae; test: Checkerboard assay (antibiotic potentiation); assay type: cell-based, Enterobacter cloacae; conditions: E. cloacae 121887 (colistin-resistant)
Procedure: as §3, §4, §5

[6] = system: E. coli; test: Checkerboard assay (antibiotic potentiation); assay type: cell-based, Escherichia coli; conditions: for Interpretation: antibiotic + compound 1; for MICantibiotic + compound: antibiotic MIC with 8 µg/mL (5 µM) compound 1; for MICantibiotic: antibiotic alone; for Potentiation: of antibiotic by 8 µg/mL (5 µM) compound 1
Procedure: as §1, §2

[7] = K. pneumoniae 113250 (colistin-resistant)
[8] = E. coli 94393 (colistin-resistant)
[9] = E. coli 94474 (colistin-resistant)

MICantibiotic + compound ([1]; P. aeruginosa 259-96916, antibiotic MIC with 8 µg/mL (5 µM) compound 1): 16 µg/mL
MICantibiotic ([1]; P. aeruginosa 259-96916): 512 µg/mL
MICantibiotic + compound ([1]; P. aeruginosa 262-101856, antibiotic MIC with 8 µg/mL (5 µM) compound 1): 4 µg/mL
MICantibiotic ([1]; P. aeruginosa 262-101856): 16 µg/mL
MICantibiotic + compound ([1]; P. aeruginosa 264-105354, antibiotic MIC with 8 µg/mL (5 µM) compound 1): 16 µg/mL
MICantibiotic ([1]; P. aeruginosa 264-105354): 128 µg/mL
MICantibiotic + compound ([1]; P. aeruginosa 101243 (colistin-resistant), antibiotic MIC with 8 µg/mL (5 µM) compound 1): 256 µg/mL
MICantibiotic ([1]; P. aeruginosa 101243 (colistin-resistant)): 512 µg/mL
MICantibiotic + compound ([1]; P. aeruginosa 114228 (colistin-resistant), antibiotic MIC with 8 µg/mL (5 µM) compound 1): 8 µg/mL
MICantibiotic ([1]; P. aeruginosa 114228 (colistin-resistant)): 8 µg/mL
MICantibiotic + compound ([1]; P. aeruginosa PAO1, antibiotic MIC with 8 µg/mL (5 µM) compound 1): 0.5 µg/mL
MICantibiotic + compound ([1]; P. aeruginosa PAO1, antibiotic MIC with 8 µg/mL (5 µM) compound 3): 4 µg/mL
MICantibiotic ([1]; P. aeruginosa PAO1): 4 µg/mL and 2 µg/mL
MICantibiotic + compound ([2]; A. baumannii 92247 (colistin-resistant), antibiotic MIC with 4 µg/mL (2 µM) compound 1): 4 µg/mL
MICantibiotic ([2]; A. baumannii 92247 (colistin-resistant)): 8 µg/mL
MICantibiotic + compound ([2]; A. baumannii 110193, antibiotic MIC with 4 µg/mL (2 µM) compound 1): 64 µg/mL
MICantibiotic ([2]; A. baumannii 110193): 256 µg/mL
MICantibiotic + compound ([2]; A. baumannii AB027, antibiotic MIC with 4 µg/mL (2 µM) compound 1): 1024 µg/mL
MICantibiotic ([2]; A. baumannii AB027): 2048 µg/mL
MICantibiotic + compound ([2]; A. baumannii AB031, antibiotic MIC with 4 µg/mL (2 µM) compound 1): >64 µg/mL
MICantibiotic ([2]; A. baumannii AB031): >64 µg/mL
MICantibiotic + compound ([2]; A. baumannii ATCC 17978, antibiotic MIC with 8 µg/mL (5 µM) compound 3): 4 µg/mL
MICantibiotic + compound ([2]; A. baumannii ATCC 17978, antibiotic MIC with ¼ MIC (≤5 µM) of compound 1): 1 µg/mL
MICantibiotic + compound ([3]; K. pneumoniae 113250 (colistin-resistant), antibiotic MIC with 8 µg/mL (5 µM) compound 1): 0.5 µg/mL
MICantibiotic [3, 7]: 0.5 µg/mL
MICantibiotic ([3]; K. pneumoniae 116381): 8 µg/mL
MICantibiotic + compound ([5]; antibiotic MIC with 8 µg/mL (5 µM) compound 1): 0.25 µg/mL
MICantibiotic ([5]; antibiotic alone): 0.25 µg/mL
MICantibiotic + compound [6, 8]: 0.5 µg/mL
MICantibiotic [6, 8]: 0.5 µg/mL
MICantibiotic + compound [6, 9]: 0.25 µg/mL
MICantibiotic [6, 9]: 0.5 µg/mL
Compound: CC(C)(O/N=C(\C(=O)N[C@@H]1C(=O)N2C(C(=O)[O-])=C(C[n+]3ccccc3)CS[C@H]12)c1csc(N)n1)C(=O)O [Ceftazidime]
Interpretation ([1]; P. aeruginosa 259-96916, antibiotic + compound 1): Synergy (FIC indices of ≤0.5 is synergistic)
Potentiation ([1]; P. aeruginosa 259-96916, of antibiotic by 8 µg/mL (5 µM) compound 1): 32 fold
Interpretation ([1]; P. aeruginosa 262-101856, antibiotic + compound 1): Synergy (FIC indices of ≤0.5 is synergistic)
Potentiation ([1]; P. aeruginosa 262-101856, of antibiotic by 8 µg/mL (5 µM) compound 1): 4 fold
Interpretation ([1]; P. aeruginosa 264-105354, antibiotic + compound 1): Synergy (FIC indices of ≤0.5 is synergistic)
Potentiation ([1]; P. aeruginosa 264-105354, of antibiotic by 8 µg/mL (5 µM) compound 1): 8 fold
Interpretation ([1]; P. aeruginosa 101243 (colistin-resistant), antibiotic + compound 1): Additive (0.5 < × ≤ 4 is additive)
Potentiation ([1]; P. aeruginosa 101243 (colistin-resistant), of antibiotic by 8 µg/mL (5 µM) compound 1): 2 fold
Interpretation ([1]; P. aeruginosa 114228 (colistin-resistant), antibiotic + compound 1): Additive (0.5 < × ≤ 4 is additive)
Potentiation ([1]; P. aeruginosa 114228 (colistin-resistant), of antibiotic by 8 µg/mL (5 µM) compound 1): 1 fold
Interpretation ([1]; P. aeruginosa PAO1, antibiotic + compound 1): Synergy (FIC indices of ≤0.5 is synergistic)
Interpretation ([1]; P. aeruginosa PAO1, antibiotic + compound 3): Additive (0.5 < × ≤ 4 is additive)
Potentiation ([1]; P. aeruginosa PAO1, of antibiotic by 8 µg/mL (5 µM) compound 1): 4 fold
Potentiation ([1]; P. aeruginosa PAO1, of antibiotic by 8 µg/mL (5 µM) compound 3): 1 fold
Interpretation ([2]; A. baumannii 92247 (colistin-resistant), antibiotic + compound 1): Additive (0.5 < × ≤ 4 is additive)
Potentiation ([2]; A. baumannii 92247 (colistin-resistant), of antibiotic by 4 µg/mL (2 µM) compound 1): 2 fold
Interpretation ([2]; A. baumannii 110193, antibiotic + compound 1): Synergy (FIC indices of ≤0.5 is synergistic)
Potentiation ([2]; A. baumannii 110193, of antibiotic by 4 µg/mL (2 µM) compound 1): 4 fold
Interpretation ([2]; A. baumannii AB027, antibiotic + compound 1): Additive (0.5 < × ≤ 4 is additive)
Potentiation ([2]; A. baumannii AB027, of antibiotic by 4 µg/mL (2 µM) compound 1): 2 fold
Interpretation ([2]; A. baumannii ATCC 17978, antibiotic + compound 1): Synergy (FIC indices of ≤0.5 is synergistic)
Interpretation ([2]; A. baumannii ATCC 17978, antibiotic + compound 3): Additive (0.5 < × ≤ 4 is additive)
Potentiation ([2]; A. baumannii ATCC 17978, of antibiotic by 8 µg/mL (5 µM) compound 3): 1 fold
Potentiation ([2]; A. baumannii ATCC 17978, of antibiotic by ¼ MIC (≤5 µM) of compound 1): 16 fold
Interpretation [3, 7]: Additive (0.5 < × ≤ 4 is additive)
Potentiation [3, 7]: 1 fold
Interpretation ([3]; K. pneumoniae 116381): Synergy (FIC indices of ≤0.5 is synergistic)
Potentiation ([3]; K. pneumoniae 116381): 64 fold
clinical isolates in which the antibiotic was synergized by compound 1 [4]: 5 (36%) strains
Interpretation ([5]; antibiotic + compound 1): Additive (0.5 < × ≤ 4 is additive)
Potentiation ([5]; of antibiotic by 8 µg/mL (5 µM) compound 1): 1 fold
Interpretation [6, 8]: Additive (0.5 < × ≤ 4 is additive)
Potentiation [6, 8]: 1 fold
Interpretation [6, 9]: Additive (0.5 < × ≤ 4 is additive)
Potentiation [6, 9]: 2 fold
